The target of assay [1] is T1, human glucocorticoid receptor-α [GRX] isoform (Homo sapiens, UniProt P04150).
T1 construct: host or cells: insect SF21 cells (baculovirus)
T1 sequence (P04150 1-777): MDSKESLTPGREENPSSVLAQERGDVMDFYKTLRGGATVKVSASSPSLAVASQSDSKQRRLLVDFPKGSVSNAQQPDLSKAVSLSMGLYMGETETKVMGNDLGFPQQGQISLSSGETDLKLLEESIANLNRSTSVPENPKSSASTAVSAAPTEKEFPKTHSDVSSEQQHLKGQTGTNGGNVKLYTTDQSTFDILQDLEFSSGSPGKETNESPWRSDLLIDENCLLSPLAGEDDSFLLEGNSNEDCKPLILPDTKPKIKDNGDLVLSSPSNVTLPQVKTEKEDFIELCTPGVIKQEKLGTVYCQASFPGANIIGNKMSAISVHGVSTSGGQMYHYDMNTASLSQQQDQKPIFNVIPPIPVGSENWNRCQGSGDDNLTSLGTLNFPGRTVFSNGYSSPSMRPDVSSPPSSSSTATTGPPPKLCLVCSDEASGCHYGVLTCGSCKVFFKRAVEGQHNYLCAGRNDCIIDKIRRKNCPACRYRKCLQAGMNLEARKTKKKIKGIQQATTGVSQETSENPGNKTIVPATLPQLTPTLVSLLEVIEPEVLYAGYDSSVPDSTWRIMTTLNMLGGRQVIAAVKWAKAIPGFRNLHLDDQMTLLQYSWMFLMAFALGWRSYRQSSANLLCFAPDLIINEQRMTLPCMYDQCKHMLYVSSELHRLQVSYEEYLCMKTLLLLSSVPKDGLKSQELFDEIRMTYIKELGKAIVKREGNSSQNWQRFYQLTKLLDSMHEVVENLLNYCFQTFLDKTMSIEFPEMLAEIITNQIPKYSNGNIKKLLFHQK
The assay can be described thus: Radioligand binding with human glucocorticoid receptor cytosol ([3H]-dexamethasone competition). The note with it: GRX cytosol expressed in insect SF21 cells, [3H]-Dex ~0.9 nM, 4° C. overnight; Ki by Cheng-Prusoff, KL ~[…]; read-out: Ki (nM) GR.

Assay [2] has as its target T2, human progesterone receptor-A [PRA] isoform (Homo sapiens, UniProt P06401).
T2 construct: host or cells: insect SF21 cells (baculovirus)
T2 sequence (P06401 1-769 isoform P06401-2): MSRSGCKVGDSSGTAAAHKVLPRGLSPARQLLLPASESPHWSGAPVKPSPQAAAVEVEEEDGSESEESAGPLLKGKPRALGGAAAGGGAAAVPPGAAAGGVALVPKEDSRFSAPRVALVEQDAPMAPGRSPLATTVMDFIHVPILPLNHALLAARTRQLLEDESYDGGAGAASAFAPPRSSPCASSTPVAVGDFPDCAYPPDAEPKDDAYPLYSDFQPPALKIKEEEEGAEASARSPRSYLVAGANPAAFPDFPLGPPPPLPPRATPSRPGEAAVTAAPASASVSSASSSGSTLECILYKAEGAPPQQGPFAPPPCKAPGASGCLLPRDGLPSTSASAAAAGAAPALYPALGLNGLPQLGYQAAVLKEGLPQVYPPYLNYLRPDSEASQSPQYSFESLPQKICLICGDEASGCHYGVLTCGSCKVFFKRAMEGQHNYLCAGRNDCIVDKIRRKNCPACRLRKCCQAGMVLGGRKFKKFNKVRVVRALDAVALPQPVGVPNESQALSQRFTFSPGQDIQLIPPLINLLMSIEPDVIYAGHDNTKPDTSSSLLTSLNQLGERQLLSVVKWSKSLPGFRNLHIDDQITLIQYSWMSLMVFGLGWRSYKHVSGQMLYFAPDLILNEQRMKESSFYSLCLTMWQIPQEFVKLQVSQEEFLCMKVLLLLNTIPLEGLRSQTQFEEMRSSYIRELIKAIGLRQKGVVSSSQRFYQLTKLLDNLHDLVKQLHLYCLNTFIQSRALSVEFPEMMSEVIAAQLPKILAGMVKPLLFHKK
The assay can be described thus: Radioligand binding with human progesterone receptor cytosol ([3H]-progesterone competition). Particulars: PRA cytosol expressed in insect SF21 cells, [3H]Prog ~0.8 nM, 4° C. overnight; Ki by Cheng-Prusoff, KL ~4.5 nM; read-out: Ki (nM) PR.

For orientation: Ki means a measure of affinity in units of concentration, obtained from inhibition or displacement.

Consider `COc1cccc2c1-c1ccc3c(c1C(c1ccc(F)cc1)O2)C(C)=CC(C)(C)N3` (stereo not drawn) [Example 30, 5-(4-Fluorophenyl)-2,5-dihydro-10-methoxy-2,2,4-trimethyl-1H-[1]benzopyrano[3,4-f]quinoline], for which the figures for the Ki in assay [1] and in assay [2] were 13 nM and 7920 nM, respectively.

With `COc1cccc2c1-c1ccc3c(c1C(c1cc(C(F)(F)F)cc(C(F)(F)F)c1)O2)C(C)=CC(C)(C)N3` (stereo not drawn) [Example 31, 5-[3,5-bis(Trifluoromethyl)phenyl]-2,5-dihydro-10-methoxy-2,2,4-trimethyl-1H-[1]benzopyrano[3,4-f]quinoline], the values for the Ki in assay [1] and in assay [2] were 12.2 nM and at least 10000 nM, respectively.

Turning to `COc1cccc2c1-c1ccc3c(c1C(c1cc(F)cc(F)c1)O2)C(C)=CC(C)(C)N3` (stereo not drawn) [Example 34, 5-(3,5-Difluorophenyl)-2,5-dihydro-10-methoxy-2,2,4-trimethyl-1H-[1]benzopyrano[3,4-f]quinoline], the Ki in assay [1] was 4 nM; in assay [2], 4710 nM.

For `COc1cccc2c1-c1ccc3c(c1C(N(C)c1ccccc1)O2)C(C)=CC(C)(C)N3` (stereo not drawn) [Example 35, 2,5-Dihydro-10-methoxy-2,2,4,N-tetramethyl-N-phenyl-1H-[1]benzopyrano[3,4-f]quinolin-5-amine], the Ki is 260 nM in assay [1] and at least 10000 nM in assay [2].

As to `COc1cccc2c1-c1ccc3c(c1CO2)C(C)=CC(C)(C)N3` [Example 38, 2,5-Dihydro-10-methoxy-2,2,4-trimethyl-1H-[1]benzopyrano[3,4-f]quinoline], the Ki is 207 nM in assay [1] and at least 10000 nM in assay [2].

On to `COc1cccc2c1-c1ccc3c(c1C(c1ccc(N(C)C)cc1)O2)C(C)=CC(C)(C)N3` (stereo not drawn) [Example 39, 4-(2,5-Dihydro-10-methoxy-2,2,4-trimethyl-1H-[1]benzopyrano[3,4-f]quinolin-5-yl)-N,N-dimethylbenzenamine], for which the Ki is 31 nM in assay [1] and at least 10000 nM in assay [2].

As to `COc1ccc(C2Oc3cccc(OC)c3-c3ccc4c(c32)C(C)=CC(C)(C)N4)s1` (stereo not drawn) [Example 40, 2,5-Dihydro-10-methoxy-2,2,4-trimethyl-5-(5-methoxy-2-thienyl)1H-[1]benzopyrano[3,4-f]quinoline], the Ki in assay [1] worked out at 18 nM; in assay [2], 18100 nM.

As to `CCCc1ccc(C2Oc3cccc(OC)c3-c3ccc4c(c32)C(C)=CC(C)(C)N4)s1` (stereo not drawn) [Example 41, 2,5-Dihydro-10-methoxy-2,2,4-trimethyl-5-(5-propyl-2-thienyl)-1H-[1]benzopyrano[3,4-f]quinoline], the values for the Ki in assay [1] and in assay [2] were 9.5 nM and 3300 nM, respectively.

Take `COc1cccc2c1-c1ccc3c(c1C(c1ccc(N4CCOCC4)cc1)O2)C(C)=CC(C)(C)N3` (stereo not drawn) [Example 42, 2,5-Dihydro-10-methoxy-2,2,4-trimethyl-5-[4-(1-morpholinyl)phenyl]1H-[1]benzopyrano[3,4-f]quinoline]: the Ki in assay [1] was 99 nM; in assay [2] it was at least 10000 nM.

Consider `COc1cccc2c1-c1ccc3c(c1C(CC(=O)C(C)(C)C)O2)C(C)=CC(C)(C)N3` (stereo not drawn) [Example 43, 1-(2,5-Dihydro-10-methoxy-2,2,4-trimethyl-1H-[1]benzopyrano[3,4-f]quinolin-5yl)-3,3-dimethyl-2-butanone], for which the Ki in assay [1] is 72 nM; in assay [2] it was at least 10000 nM.

For the compound `COc1cccc2c1-c1ccc3c(c1C(C#N)O2)C(C)=CC(C)(C)N3` (stereo not drawn) [Example 44, 2,5-Dihydro-10-methoxy-2,2,4-trimethyl-1H-[1]benzopyrano[3,4-f]quinoline-5-carbonitrile], the Ki in assay [1] was 190 nM; in assay [2] it was 19500 nM.

Take `COC(=O)CC1Oc2cccc(OC)c2-c2ccc3c(c21)C(C)=CC(C)(C)N3` (stereo not drawn) [Example 46, Methyl 2,5-Dihydro-10-methoxy-2,2,4-trimethyl-1H-[1]benzopyrano[3,4-f]quinoline-5-acetate]: the Ki in assay [1] came out at 2.7 nM; in assay [2], 3440 nM.

As to `COc1cccc2c1-c1ccc3c(c1C(CC(=O)c1ccccc1)O2)C(C)=CC(C)(C)N3` (stereo not drawn) [Example 47, 2-(2,5-Dihydro-10-methoxy-2,2,4-trimethyl-1H-[1]benzopyrano[3,4-f]quinolin-5-yl)-1-phenylethanone], the Ki in assay [1] was 174 nM; in assay [2] it was at least 10000 nM.

On to `C=C(CCl)CC1Oc2cccc(OC)c2-c2ccc3c(c21)C(C)=CC(C)(C)N3` (stereo not drawn) [Example 48, 5-[2-(Chloromethyl)-2-propenyl]-2,5-dihydro-10-methoxy-2,2,4-trimethyl-1H-[1]benzopyrano[3,4-f]quinoline], for which the figures for the Ki in assay [1] and in assay [2] were 5.8 nM and 2770 nM, respectively.

As for `C=C(COC(C)=O)CC1Oc2cccc(OC)c2-c2ccc3c(c21)C(C)=CC(C)(C)N3` (stereo not drawn) [Example 49], the Ki in assay [1] was 13 nM; in assay [2], at least 10000 nM.

Regarding `COc1cccc2c1-c1ccc3c(c1C(c1ccc(C)cc1)O2)C(C)=CC(C)(C)N3` (stereo not drawn) [Example 50, 2,5-Dihydro-10-methoxy-2,2,4-tnimethyl-5-(4-methylphenyl)-1H-[1]benzopyrano[3,4-f]quinoline], the Ki amounted to 4.9 nM in assay [1] and 9450 nM in assay [2].

`COc1cccc2c1-c1ccc3c(c1C(c1ccc(C)c(F)c1)O2)C(C)=CC(C)(C)N3` (stereo not drawn) [Example 51]: the inhibitory constant (Ki) amounted to 18 nM in assay [1] and 7330 nM in assay [2].

For `COc1cccc2c1-c1ccc3c(c1C(c1cccc(Br)c1)O2)C(C)=CC(C)(C)N3` (stereo not drawn) [Example 52, 5-(3-Bromophenyl)-2,5-dihydro-10-methoxy-2,2,4-trimethyl-1H-[1]benzopyrano[3,4-f]quinoline], the Ki in assay [1] amounted to 3 nM; in assay [2], 2270 nM.

Consider `COc1cccc2c1-c1ccc3c(c1C(c1ccc(F)c(C)c1)O2)C(C)=CC(C)(C)N3` (stereo not drawn) [Example 55], for which the Ki was 8.2 nM in assay [1] and at least 10000 nM in assay [2].

As for `COc1cccc2c1-c1ccc3c(c1C(c1cccc(F)c1)O2)C(C)=CC(C)(C)N3` (stereo not drawn) [Example 56, 5-(3-Fluorophenyl)-2,5-Dihydro-10-methoxy-2,2,4-trimethyl-1H-[1]benzopyrano[3,4-f]quinoline], the figures for the Ki in assay [1] and in assay [2] were 6.2 nM and at least 10000 nM, respectively.

Take `COc1cccc2c1-c1ccc3c(c1C(C(C)C)O2)C(C)=CC(C)(C)N3` (stereo not drawn) [Example 58, 2,5-Dihydro-10-methoxy-2,2,4-trimethyl-5-(1-methylethyl)-1H-[1]benzopyrano[3,4-f]quinoline]: the Ki is 9 nM in assay [1] and 8570 nM in assay [2].

On to `COc1cccc2c1-c1ccc3c(c1C(CC(C)C)O2)C(C)=CC(C)(C)N3` (stereo not drawn) [Example 59, 2,5-Dihydro-10-methoxy-2,2,4-trimethyl-5-(2-methlpropyl)-1H-[1]benzopyrano[3,4-f]quinoline], for which the Ki in assay [1] turned out to be 9.5 nM; in assay [2], 16600 nM.

Turning to `CCC1Oc2cccc(OC)c2-c2ccc3c(c21)C(C)=CC(C)(C)N3` (stereo not drawn) [Example 60, 5-Ethyl-2,5-dihydro-10-methoxy-2,2,4-trimethyl-1H-[1]benzopyrano[3,4-f]quinoline], the Ki in assay [1] came to 14 nM; in assay [2], 10500 nM.

Regarding `CCOC(=N)C1Oc2cccc(OC)c2-c2ccc3c(c21)C(C)=CC(C)(C)N3` (stereo not drawn) [Example 61, 2,5-Dihydro-10-methoxy-2,2,4-trimethyl-1H-[1]benzopyrano[3,4-f]quinoline-5-carboximidic Acid Ethyl Ester], the Ki in assay [1] is 62 nM; in assay [2], 14400 nM.

The values above are taken from patent US6506766B1 (Abbott Laboratories, priority 1998, dated 2003).
